Measurements: patent US20220125051A1, “PRE-HARVEST DESICCATION METHOD” (SYNGENTA CROP PROTECTION AG, priority 2019, published 2022)
Like-named read-outs stand apart in the source and are kept apart here.

Columns and labels:
Assay in all cases: Post-emergence efficacy, Method A
Format in all cases: in vivo
Eleusine indica (ELEIN) = settings: evaluated after 13 days; for pest or weed control at 500 g/ha: Eleusine indica, post-emergence, 312 h
Procedure, shortened: (§1)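 Sow in standard soil; grow 14 d under glasshouse control (24/16 °C, 14 h light, 65% humidity). Spray post-emergence with compound formulated in acetone/IF50, diluted in Empicol ESC70 (0.25% or 1%) + 1% ammonium sulphate. Return to glasshouse, water twice daily, score at 13 d on a 0–100 damage scale.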

Lolium perenne (LOLPE) = settings: evaluated after 13 days; for pest or weed control at 500 g/ha: Lolium perenne, post-emergence, 312 h
Procedure, shortened: as §1

[1] = system: Echinochloa crus-galli (ECHCG); settings: evaluated after 13 days; for pest or weed control at 500 g/ha: Echinochloa crus-galli, post-emergence, 312 h
Procedure, shortened: as §1

[2] = system: Digitaria sanguinalis (DIGSA); settings: evaluated after 13 days; for pest or weed control at 500 g/ha: Digitaria sanguinalis, post-emergence, 312 h
Procedure, shortened: as §1

[3] = system: Chenopodium album (CHEAL); settings: evaluated after 13 days; for pest or weed control at 500 g/ha: Chenopodium album, post-emergence, 312 h
Procedure, shortened: as §1

[4] = system: Ipomoea hederacea (IPOHE); settings: evaluated after 13 days; for pest or weed control at 500 g/ha: Ipomoea hederacea, post-emergence, 312 h
Procedure, shortened: as §1

[5] = system: Amaranthus palmeri (AMAPA); settings: evaluated after 13 days; for pest or weed control at 500 g/ha: Amaranthus palmeri, post-emergence, 312 h
Procedure, shortened: as §1

[6] = system: Euphorbia heterophylla (EPHHL); settings: evaluated after 13 days; for pest or weed control at 500 g/ha: Euphorbia heterophylla, post-emergence, 312 h
Procedure, shortened: as §1

Setaria faberi (SETFA) = settings: evaluated after 13 days; for pest or weed control at 500 g/ha: Setaria faberi, post-emergence, 312 h
Procedure, shortened: as §1

[7] = Application Rate 500 g/Ha, Method A, read-out: Control of weed species after post-emergence application, ELEIN (100=total damage to plant; 0=no damage to plant)
[8] = Application Rate 500 g/Ha, Method A, read-out: Control of weed species after post-emergence application, LOLPE (100=total damage to plant; 0=no damage to plant)
[9] = Application Rate 500 g/Ha, Method A, read-out: Control of weed species after post-emergence application, ECHCG (100=total damage to plant; 0=no damage to plant)
[10] = Application Rate 500 g/Ha, Method A, read-out: Control of weed species after post-emergence application, DIGSA (100=total damage to plant; 0=no damage to plant)
[11] = Application Rate 500 g/Ha, Method A, read-out: Control of weed species after post-emergence application, CHEAL (100=total damage to plant; 0=no damage to plant)
[12] = Application Rate 500 g/Ha, Method A, read-out: Control of weed species after post-emergence application, IPOHE (100=total damage to plant; 0=no damage to plant)
[13] = Application Rate 500 g/Ha, Method A, read-out: Control of weed species after post-emergence application, AMAPA (100=total damage to plant; 0=no damage to plant)
[14] = Application Rate 500 g/Ha, Method A, read-out: Control of weed species after post-emergence application, EPHHL (100=total damage to plant; 0=no damage to plant)
[15] = Application Rate 500 g/Ha, Method A, read-out: Control of weed species after post-emergence application, SETFA (100=total damage to plant; 0=no damage to plant)
[16] = Application rate 500 g/Ha, 100=total damage to plant, 0=no damage to plant, read-out: Control of weed species after post-emergence application, ELEIN
[17] = Application rate 500 g/Ha, 100=total damage to plant, 0=no damage to plant, read-out: Control of weed species after post-emergence application, LOLPE
[18] = Application rate 500 g/Ha, 100=total damage to plant, 0=no damage to plant, read-out: Control of weed species after post-emergence application, ECHCG
[19] = Application rate 500 g/Ha, 100=total damage to plant, 0=no damage to plant, read-out: Control of weed species after post-emergence application, DIGSA
[20] = Application rate 500 g/Ha, 100=total damage to plant, 0=no damage to plant, read-out: Control of weed species after post-emergence application, CHEAL
[21] = Application rate 500 g/Ha, 100=total damage to plant, 0=no damage to plant, read-out: Control of weed species after post-emergence application, IPOHE
[22] = Application rate 500 g/Ha, 100=total damage to plant, 0=no damage to plant, read-out: Control of weed species after post-emergence application, AMAPA
[23] = Application rate 500 g/Ha, 100=total damage to plant, 0=no damage to plant, read-out: Control of weed species after post-emergence application, EPHHL
[24] = Application rate 500 g/Ha, 100=total damage to plant, 0=no damage to plant, read-out: Control of weed species after post-emergence application, SETFA
[25] = Application Rate 500 g/Ha, Method A

| SMILES | pest or weed control at 500 g/ha (Eleusine indica (ELEIN); [7]) [%] | pest or weed control at 500 g/ha (Lolium perenne (LOLPE); [8]) [%] | pest or weed control at 500 g/ha [1, 9] [%] | pest or weed control at 500 g/ha [2, 10] [%] | pest or weed control at 500 g/ha [3, 11] [%] | pest or weed control at 500 g/ha [4, 12] [%] | pest or weed control at 500 g/ha [5, 13] [%] | pest or weed control at 500 g/ha [6, 14] [%] | pest or weed control at 500 g/ha (Setaria faberi (SETFA); [15]) [%] | pest or weed control at 500 g/ha (Eleusine indica (ELEIN); [16]) [%] | pest or weed control at 500 g/ha (Lolium perenne (LOLPE); [17]) [%] | pest or weed control at 500 g/ha [1, 18] [%] | pest or weed control at 500 g/ha [2, 19] [%] | pest or weed control at 500 g/ha [3, 20] [%] | pest or weed control at 500 g/ha [4, 21] [%] | pest or weed control at 500 g/ha [5, 22] [%] | pest or weed control at 500 g/ha [6, 23] [%] | pest or weed control at 500 g/ha (Setaria faberi (SETFA); [24]) [%] | other results |
| --- | --- | --- | --- | --- | --- | --- | --- | --- | --- | --- | --- | --- | --- | --- | --- | --- | --- | --- | --- |
| NC(=O)c1cnc(-c2cc[n+](CCC(=O)O)nc2)cn1 [Compound A202, 3-[4-(5-carbamoylpyrazin-2-yl)pyridazin-1-ium-1-yl]propanoic acid 2,2,2-trifluoroacetate] | 20 | 70 | 80 | 60 | 90 | 60 | 100 | 100 | 70 |  |  |  |  |  |  |  |  |  |  |
| O=C(O)CC[n+]1ccc(-c2ccnc(C(F)(F)F)n2)cn1 [Compound A118] |  |  |  |  |  |  |  |  |  | 70 | 90 | 40 | 90 | 80 | 60 | 80 | 90 | 70 |  |
| CO[N-]C(=O)C[n+]1ccc(-c2ncccn2)cn1 [Compound A219] | 100 | 70 | 40 | 70 | 80 | 60 | 100 | 90 | 90 |  |  |  |  |  |  |  |  |  |  |
| O=S(=O)([O-])CC[n+]1ccc(-c2ccc(C(F)(F)F)cn2)cn1 [Compound A174] | 60 | 60 | 50 | 50 | 40 | 50 | 100 | 60 | 60 |  |  |  |  |  |  |  |  |  |  |
| O=S(=O)(O)CC[n+]1ccc(-c2cccnc2)cn1 [Compound A179] |  |  |  |  |  |  |  |  |  |  |  |  |  |  |  |  |  |  | Control of weed species after post-emergence application, ELEIN (100=total damage to plant; 0=no damage to plant) (Eleusine indica (ELEIN); [25]): 50; Control of weed species after post-emergence application, LOLPE (100=total damage to plant; 0=no damage to plant) (Lolium perenne (LOLPE); [25]): 10; Control of weed species after post-emergence application, ECHCG (100=total damage to plant; 0=no damage to plant) [1, 25]: 40; Control of weed species after post-emergence application, DIGSA (100=total damage to plant; 0=no damage to plant) [2, 25]: 50; Control of weed species after post-emergence application, CHEAL (100=total damage to plant; 0=no damage to plant) [3, 25]: 30; Control of weed species after post-emergence application, IPOHE (100=total damage to plant; 0=no damage to plant) [4, 25]: 20; Control of weed species after post-emergence application, AMAPA (100=total damage to plant; 0=no damage to plant) [5, 25]: 30; Control of weed species after post-emergence application, EPHHL (100=total damage to plant; 0=no damage to plant) [6, 25]: 60; Control of weed species after post-emergence application, SETFA (100=total damage to plant; 0=no damage to plant) (Setaria faberi (SETFA); [25]): 60 |
| O=S(=O)([O-])CCCC[n+]1ccc(-c2ncccn2)cn1 [Compound A215] | 30 | 20 | 30 | 60 | 60 | 60 | 100 | 90 | 20 |  |  |  |  |  |  |  |  |  |  |
| O=C(O)CC[n+]1ccc(-c2ncc(F)cc2F)cn1 [Compound A144] |  |  |  |  |  |  |  |  |  | 20 | 10 | 20 | 30 | 10 | 10 | 20 | 20 | 20 |  |
| O=C(O)CC[n+]1ccc(-c2ccnc(C(F)(F)F)c2)cn1 [Compound A166] | 60 | 70 | 50 | 70 | 50 | 60 | 30 | 60 | 40 |  |  |  |  |  |  |  |  |  |  |
| O=P(O)(O)C[n+]1ccc(-c2ccncn2)cn1 [Compound A236] |  |  |  |  |  |  |  |  |  |  |  |  |  |  |  |  |  |  | Control of weed species after post-emergence application, ELEIN (100=total damage to plant; 0=no damage to plant) (Eleusine indica (ELEIN); [25]): 10; Control of weed species after post-emergence application, LOLPE (100=total damage to plant; 0=no damage to plant) (Lolium perenne (LOLPE); [25]): 0; Control of weed species after post-emergence application, ECHCG (100=total damage to plant; 0=no damage to plant) [1, 25]: 50; Control of weed species after post-emergence application, DIGSA (100=total damage to plant; 0=no damage to plant) [2, 25]: 80; Control of weed species after post-emergence application, CHEAL (100=total damage to plant; 0=no damage to plant) [3, 25]: 20; Control of weed species after post-emergence application, IPOHE (100=total damage to plant; 0=no damage to plant) [4, 25]: 40; Control of weed species after post-emergence application, AMAPA (100=total damage to plant; 0=no damage to plant) [5, 25]: 90; Control of weed species after post-emergence application, EPHHL (100=total damage to plant; 0=no damage to plant) [6, 25]: 30; Control of weed species after post-emergence application, SETFA (100=total damage to plant; 0=no damage to plant) (Setaria faberi (SETFA); [25]): 30 |
| COc1cncc(-c2cc[n+](CCCS(=O)(=O)[O-])nc2)n1 [Compound A90] |  |  |  |  |  |  |  |  |  | 20 | 20 | 20 | 30 | 20 | 30 | 40 | 60 | 30 |  |
| O=S(=O)([O-])CC[n+]1ccc(-c2cc(C(F)(F)F)ncn2)cn1 [Compound A109] |  |  |  |  |  |  |  |  |  | 50 | 30 | 40 | 50 | 60 | 50 | 60 | 60 | 30 |  |
| CC(=O)c1ccnc(-c2cc[n+](CCS(=O)(=O)[O-])nc2)n1 [Compound A49] |  |  |  |  |  |  |  |  |  | 100 | 50 | 60 | 90 | 80 | 60 | 100 | 70 | 100 |  |
| O=S(=O)([O-])CCC[n+]1ccc(-c2cnc(F)cn2)cn1 [Compound A98] |  |  |  |  |  |  |  |  |  | 20 | 0 | 20 | 10 | 20 | 30 | 40 | 40 | 20 |  |
| Cc1cc(F)cnc1-c1cc[n+](CCS(=O)(=O)[O-])nc1 [Compound A104] |  |  |  |  |  |  |  |  |  | 50 | 10 | 30 | 30 | 0 | 30 | 10 | 20 | 30 |  |
